{"source": "patent US20080089956A1", "about": "“NITRIC OXIDE IN TREATMENT OF INFLAMMATION” (AGA AB, priority 2003, published 2008)", "format_in_all_cases": "in vivo, piglets of Swedish country breed", "key": {"[1]": {"test_system": "endotoxin pig model (LPS-induced acute lung injury and septic shock)", "test": "Histological changes of lung, liver and kidney tissues in endotoxin pig model", "set-up": "Congestion / Inflammatory cell infiltrate / Congestion and hemorrhage / Edema/ Hemorrage: key to the marks not given beside the values", "procedure": "(§1) The pigs were divided into 5 groups: • 1. Normal control group • 2. Endotoxin (lipopolysaccharide, LPS) group • 3. LPS+INO group • 4. LPS+steoid group • 5. LPS +INO +steroid group • The different protocols are shown schematically in FIG. 1 and are described below. 1. Healthy Control Group (n=8)\n(§2) Anesthesia, surgery preparation and catheterizations were followed by 30 min of rest. Baseline measurements were then made. The pigs were followed for another 6 hours to establish control data over the whole study period. The pigs were killed after the last measurement with an intra-venous injection of KCl; and tissue samples were taken from the lung, liver and kidney for morphological and biochemical studies.\n(§3) After baseline measurements, acute lung injury and septic shock was induced by intravenous infusion of LPS 25 μg/kg/h in saline for 2.5 h, followed by 10 μg/kg/h for the remainder of the study. The pigs were followed by hemodynamics and blood gas measurements and were killed at the end of the experiment and tissue samples were taken, as described above.\n(§4) LPS infusion was started after baseline measurements and continued for 6 hours. Two and half hours after commencement of the endotoxin infusion, inhalation of NO 30 ppm was started and maintained for 3.5 hours. Measurements were taken every hour to check for any protective effect of INO therapy on the lung and extra-pulmonary organs.\n(§5) This group received endotoxin over 6 hours, as described above, and 2.5 hours after the start of endotoxin administration steroids were given i.v. and INO, 30 ppm, was commenced and continued for the remaining 3.5 hours study period.\nNO, 1000 ppm in N2, was added to a mixture of O2/N2 and administered through the low-flow inlet of the ventilator. The inspired gas was passed through a canister containing soda lime to absorb any NO2. […] The concentrations of inspired NO and NO2 were measured continuously, by chemiluminescence (9841 NOx, Lear Siegler Measurement Controls Corporation, Englewood, Colo., USA), in the inspiratory limb of the ventilator tubing. FIO2 was checked after addition of NO and kept stable at the pre-INO level."}, "glucocorticoid receptor": {"test_system": "glucocorticoid receptor", "test": "GR expression, immunohistochemical staining of tissue from endotoxin-exposed piglets", "conditions": "compared with LPS group", "procedure": "as §2\n(§6) Anesthesia, surgery and catheterizations were similar to the controls. After baseline measurements, acute lung injury and septic shock was induced by intravenous infusion of LPS 25 μg/kg/h in saline for 2.5 h, followed by 10 μg/kg/h for the remainder of the study. […]\n(§7) The antibodies were detected with the peroxidase-anti-peroxidase method using 3-amino-9-ethyl-carbazole (AEC, SIGMA Catalogue No. A-6926 Germany) as chromogen. […]\n(§8) An image-analysis system consisting of a 12-bit cooled charge-coupled device camera (Sensys KAF 1400, Photometrics, Tucson, AZ) mounted on a fully automated Leica (Wetzlar, Germany) DM RXA microscope was used to digitize grey-scale images to a dual-Pentium 200 MHz host computer. […] The optimal central wavelength was determined by measurement of the substrate in a Leica MPV SP microscope photometer system (courtesy of Leica)."}, "[2]": {"test_system": "endotoxin pig model (LPS-induced acute lung injury and septic shock)", "test": "Haemodynamics and arterial oxygenation in endotoxin (LPS) pig model", "procedure": "as §1, §3, §4, §5\nNO, 1000 ppm in N2, was added to a mixture of O2/N2 and administered through the low-flow inlet of the ventilator. The inspired gas was passed through a canister containing soda lime to absorb any NO2. […] The concentrations of inspired NO and NO2 were measured continuously, by chemiluminescence (9841 NOx, Lear Siegler Measurement Controls Corporation, Englewood, Colo., USA), in the inspiratory limb of the ventilator tubing."}, "NF-κB": {"test_system": "NF-κB", "test": "Expression of NF-κB, immunohistochemical staining of tissue from endotoxin-exposed piglets", "procedure": "as §2, §6, §7, §8"}, "[3]": {"conditions": "Kidney, piglets, LPS infusion 6 h, treatment from 2.5 h (INO 30 ppm; hydrocortisone 3.5 mg/kg i.v.)"}, "[4]": {"conditions": "Liver, piglets, LPS infusion 6 h, treatment from 2.5 h (INO 30 ppm; hydrocortisone 3.5 mg/kg i.v.)"}, "[5]": {"conditions": "piglets during 6 h endotoxin infusion, treatment from 2.5 h"}}, "note": "“Also recorded” adds a separate entry of the source."}
{"substance": "nitric oxide [LPS + INO]", "values": [{"measurement": "histology changes of kidney tissue, in words", "setting": "[1]; Kidney, endotoxin-exposed piglets, compared with LPS group / healthy", "result": "even less marked than in the LPS+Steroid group"}, {"measurement": "Edema/ Hemorrage", "setting": "[1]; [3]", "result": "+++"}, {"measurement": "Inflammatory cell infiltrate", "setting": "[1]; [3]", "result": "+++"}, {"measurement": "histology changes of liver tissue, in words", "setting": "[1]; Liver, endotoxin-exposed piglets, compared with LPS group / healthy", "result": "much less than in the LPS group"}, {"measurement": "Congestion and hemorrhage", "setting": "[1]; [4]", "result": "++"}, {"measurement": "Destruction of the lobular structure", "setting": "[1]; [4]", "result": "+"}, {"measurement": "Inflammatory cell infiltrate", "setting": "[1]; [4]", "result": "+++"}, {"measurement": "histology changes of lung tissue, in words", "setting": "[1]; Lung, endotoxin-exposed piglets, compared with LPS group / healthy", "result": "even less of these changes"}, {"measurement": "Inflammatory cell infiltrate", "setting": "[1]; Lung, piglets, LPS infusion 6 h, treatment from 2.5 h (INO 30 ppm for 3.5 h; hydrocortisone 3.5 mg/kg i.v.)", "result": "+++"}, {"measurement": "Congestion", "setting": "[1]; Lung, piglets, LPS infusion 6 h, treatment from 2.5 h (INO 30 ppm; hydrocortisone 3.5 mg/kg i.v.)", "result": "+++"}, {"measurement": "inflammatory response, in words", "setting": "[1]; endotoxin pig model, lung, liver and kidney (discussion)", "result": "attenuated the inflammatory response but only to a limited degree"}, {"measurement": "expression of glucocorticoid receptor in lung tissue, in words", "setting": "glucocorticoid receptor", "result": "significantly raised"}, {"measurement": "arterial oxygenation (PaO2), effect in words", "setting": "[2]; [5]", "result": "improved oxygenation; also recorded: prevented part of the fall in PaO2"}, {"measurement": "mean pulmonary artery pressure (MPAP), effect in words", "setting": "[2]; [5]", "result": "lowered MPAP but not back to normal; also recorded: attenuated the increase in MPAP"}, {"measurement": "MPAP higher than in healthy controls", "setting": "[2]; piglets during endotoxin infusion with INO 30 ppm, p<0.01 vs healthy controls", "result": "75-80%"}, {"measurement": "NF-kB expression in lung tissue, in words", "setting": "NF-κB", "result": "at a low level"}]}
